Reference: the NIST ThermoML archive (doi:10.1021/je0498053)

Legend:
[1] = 101.3 kPa, Liquid
[2] = xn = mol fraction of the nth substance listed; details: 101.3 kPa, Liquid

CCCCN [1-butanamine]
[1]
Details | mass density [kg/m3] | viscosity [mPa·s]
303.15 K | 732.1 | 0.46
313.15 K | 722.9 | 0.4
323.15 K | 712.7 | 0.36

CC(C)CC(C)O (stereo not given) [4-methyl-2-pentanol] + CCCCN
[2]
Details | mass density, 303.15 K [kg/m3] | mass density, 313.15 K [kg/m3] | mass density, 323.15 K [kg/m3] | viscosity, 303.15 K [mPa·s] | viscosity, 313.15 K [mPa·s] | viscosity, 323.15 K [mPa·s]
x2 = 0 | 799.3 | 790.7 | 782 | 3.23 | 2.24 | 1.55
x2 = 0.1 | 794.8 | 787 | 778.6 | 2.61 | 1.91 | 1.4
x2 = 0.2 | 790.7 | 782.9 | 774.5 | 2.06 | 1.57 | 1.21
x2 = 0.3 | 785.2 | 777.3 | 768.9 | 1.66 | 1.31 | 1.02
x2 = 0.3999 | 779.6 | 771.5 | 763 | 1.35 | 1.09 | 0.87
x2 = 0.5 | 772.8 | 764.6 | 755.9 | 1.09 | 0.91 | 0.75
x2 = 0.6 | 766 | 757.5 | 748.6 | 0.92 | 0.77 | 0.64
x2 = 0.6999 | 758 | 749.4 | 740.3 | 0.77 | 0.65 | 0.54
x2 = 0.7999 | 749.7 | 740.9 | 731.1 | 0.64 | 0.55 | 0.47
x2 = 0.9 | 740.8 | 731.7 | 721.7 | 0.56 | 0.48 | 0.41

CCCC(O)CC (stereo not given) [3-hexanol]
[1]
Details | mass density [kg/m3] | viscosity [mPa·s]
303.15 K | 810.2 | 3.52
313.15 K | 801.7 | 2.34
323.15 K | 792.8 | 1.58

CC(C)CC(C)O (stereo not given) [4-methyl-2-pentanol]
[1]
Details | mass density [kg/m3] | viscosity [mPa·s]
303.15 K | 799.3 | 3.23
313.15 K | 790.7 | 2.24
323.15 K | 782 | 1.55

CCCC(C)CO (stereo not given) [2-methyl-1-pentanol] + CCCCN
[2]
Details | mass density, 303.15 K [kg/m3] | mass density, 313.15 K [kg/m3] | mass density, 323.15 K [kg/m3] | viscosity, 303.15 K [mPa·s] | viscosity, 313.15 K [mPa·s] | viscosity, 323.15 K [mPa·s]
x2 = 0 | 816.8 | 809.5 | 801.5 | 4.55 | 3.18 | 2.25
x2 = 0.1 | 810.3 | 803 | 795.3 | 3.38 | 2.51 | 1.85
x2 = 0.2 | 804.8 | 797.4 | 789.6 | 2.67 | 2.06 | 1.57
x2 = 0.2999 | 798.2 | 790.6 | 782.6 | 2.1 | 1.65 | 1.32
x2 = 0.4 | 791 | 783.2 | 775 | 1.67 | 1.35 | 1.08
x2 = 0.5 | 783.6 | 775.7 | 767.2 | 1.37 | 1.11 | 0.91
x2 = 0.6 | 774.5 | 766.3 | 757.7 | 1.1 | 0.9 | 0.75
x2 = 0.6999 | 764.7 | 756.2 | 747.4 | 0.89 | 0.72 | 0.6
x2 = 0.8 | 753.9 | 745.2 | 736.1 | 0.69 | 0.59 | 0.5
x2 = 0.8999 | 742.9 | 734.5 | 724.3 | 0.54 | 0.48 | 0.42

CCCCN [1-butanamine] + CC(C)CC(C)O
[2], x1 = 1
Details | mass density [kg/m3] | viscosity [mPa·s]
303.15 K | 732.1 | 0.46
313.15 K | 722.9 | 0.4
323.15 K | 712.7 | 0.36

CCCCN [1-butanamine] + CCCCC(C)O
[2], x1 = 1
Details | mass density [kg/m3] | viscosity [mPa·s]
303.15 K | 732.1 | 0.46
313.15 K | 722.9 | 0.4
323.15 K | 712.7 | 0.36

CCCC(C)(C)O [2-methyl-2-pentanol]
[1]
Details | mass density [kg/m3] | viscosity [mPa·s]
303.15 K | 810.8 | 2.93
313.15 K | 802.4 | 2.06
323.15 K | 793.5 | 1.46

CCCC(O)CC (stereo not given) [3-hexanol] + CCCCN
[2]
Details | mass density, 303.15 K [kg/m3] | mass density, 313.15 K [kg/m3] | mass density, 323.15 K [kg/m3] | viscosity, 303.15 K [mPa·s] | viscosity, 313.15 K [mPa·s] | viscosity, 323.15 K [mPa·s]
x2 = 0 | 810.2 | 801.7 | 792.8 | 3.52 | 2.34 | 1.58
x2 = 0.1 | 806.4 | 798.4 | 789.8 | 2.85 | 2.2 | 1.44
x2 = 0.2 | 801.4 | 793.5 | 785 | 2.26 | 1.79 | 1.24
x2 = 0.3 | 795.6 | 787.5 | 776.9 | 1.78 | 1.39 | 1.07
x2 = 0.3999 | 788.6 | 780.5 | 770 | 1.41 | 1.09 | 0.91
x2 = 0.5 | 780.4 | 772 | 763.2 | 1.13 | 0.89 | 0.76
x2 = 0.5999 | 772 | 763.5 | 754.5 | 0.92 | 0.78 | 0.65
x2 = 0.7 | 762.9 | 754.1 | 745.2 | 0.76 | 0.68 | 0.55
x2 = 0.7999 | 753 | 743.6 | 734.4 | 0.65 | 0.58 | 0.48
x2 = 0.9 | 742 | 732.7 | 723.2 | 0.54 | 0.46 | 0.4

CCCCN [1-butanamine] + CCCC(C)(C)O
[2], x1 = 1
Details | mass density [kg/m3] | viscosity [mPa·s]
303.15 K | 732.1 | 0.46
313.15 K | 722.9 | 0.4
323.15 K | 712.7 | 0.36

CCCCC(C)O (stereo not given) [2-hexanol]
[1]
Details | mass density [kg/m3] | viscosity [mPa·s]
303.15 K | 806.4 | 3.23
313.15 K | 798.4 | 2.29
323.15 K | 790.1 | 1.64

CCCCN [1-butanamine] + CCCC(O)CC
[2], x1 = 1
Details | mass density [kg/m3] | viscosity [mPa·s]
303.15 K | 732.1 | 0.46
313.15 K | 722.9 | 0.4
323.15 K | 712.7 | 0.36

CCCC(C)CO (stereo not given) [2-methyl-1-pentanol]
[1]
Details | mass density [kg/m3] | viscosity [mPa·s]
303.15 K | 816.8 | 4.55
313.15 K | 809.5 | 3.18
323.15 K | 801.5 | 2.25
